From patent US8901165B2, “Alkoxylated glycerol acetals and their derivatives” (Cognis IP Management GmbH, priority 2009, dated 2014)

Experiments:
[1] = Dynamic and quasi-static surface tension, tensiometer SITA science line t60; format: physicochemical; conditions: for Surface Tension at 0.1 Hz: bubble frequency 0.1 Hz (quasi-static); for Surface Tension at 10 Hz: bubble frequency 10 Hz (dynamic)
Description: Quasi-Static or equilibrium surface tension at an air-liquid interface can be determined by the Du Noüy ring method, the Wilhelmy plate or the like. […] To avoid such problems, a dynamic method is used but the frequency is reduced to 0.1 Hz or less, thus close enough to equilibrium conditions. […] The products therefore fulfill the complex profile as explained above perfectly.
(§1) Foam properties and surface tension of various alkoxylated glycerol acetals were compared with data obtained from conventional fatty alcohol alkoxylates at 0.1 and 0.25% b.w. concentration, respectively. Foam potential was tested with SITA foam tester R-2000, available from SITA Messtechnik GmbH, Gostritzer Str. 61-63, 01217 Dresden, Germany. Dynamic surface tension was determined with the tensiometer SITA science line t60, ibid.

[2] = Foam potential, SITA foam tester R-2000; format: physicochemical; conditions: 0.1% aqueous solution/dispersion
Method: as §1

[3] = 0.1% aqueous solution/dispersion
[4] = 0.25% aqueous solution/dispersion

Surface Tension at 0.1 Hz [1, 3] | Surface Tension at 10 Hz [1, 3] | Foam after 1 min [2] | Foam after 5 min [2] | Surface Tension at 0.1 Hz [1, 4] | Surface Tension at 10 Hz [1, 4] | Substance
26 mN/m | 40 mN/m | 190 mL | 170 mL | – | – | Decanol + 5EO [Example C2, reference compound]
– | – | – | – | 26 mN/m | 33 mN/m | Decanol + 5EO [Example C4, reference compound]
27 mN/m | 40 mN/m | 225 mL | 210 mL | – | – | Isodecanol + 6EO [Example C1, reference compound]
– | – | – | – | 27 mN/m | 34 mN/m | Isodecanol + 6EO [Example C3, reference compound]
31 mN/m | 43 mN/m | 0 mL | 0 mL | – | – | iso-nonyl glycerol acetal+3PO+3EO [Example 5]
– | – | – | – | 29 mN/m | 36 mN/m | iso-nonyl glycerol acetal+3PO+3EO [Example 13]
30 mN/m | 52 mN/m | 100 mL | 80 mL | – | – | n-decyl glycerol acetal+4PO+4EO [Example 2]
31 mN/m | 50 mN/m | 120 mL | 110 mL | – | – | n-decyl glycerol acetal+4PO+4EO [Example 3]
– | – | – | – | 32 mN/m | 38 mN/m | n-decyl glycerol acetal+4PO+4EO [Example 10]
– | – | – | – | 31 mN/m | 44 mN/m | n-decyl glycerol acetal+4PO+4EO [Example 11]
32 mN/m | 44 mN/m | 30 mL | 25 mL | – | – | n-octyl glycerol acetal+4PO+4EO [Example 1]
– | – | – | – | 32 mN/m | 39 mN/m | n-octyl glycerol acetal+4PO+4EO [Example 9]
